pEC50, pIC50: −log10 of the molar value. Bridge positions count the residues as written; N and C are the ends. Side chains are listed from the residue outwards. Peptide text beside a SMILES is read from it. * marks the point of attachment. Butanoyl(4-(4-I-phenyl)) = O=C(CCCc1ccc(I)cc1)*; PEG2 = NCCOCCOCCC(=O)O
What was measured:
HTR2B = HTR2B (Homo sapiens, UniProt P41595); experiment: Safetyscan47 GPCR Calcium Flux, Agonist; assay type: cell-based; details: for Emax: read-out: Max Response
CNR2 = CNR2 (Homo sapiens, UniProt P34972); experiment: Safetyscan47 GPCR cAMP, Agonist; assay type: cell-based; details: for Emax: read-out: Max Response
MAOA = target: T1, MAOA (Homo sapiens, UniProt P21397); experiment: Safetyscan47 Non-Kinase Enzymes Enzymatic, Inhibitor; assay type: biochemical; details: for Emax: read-out: Max Response
T1 sequence (P21397 1-527): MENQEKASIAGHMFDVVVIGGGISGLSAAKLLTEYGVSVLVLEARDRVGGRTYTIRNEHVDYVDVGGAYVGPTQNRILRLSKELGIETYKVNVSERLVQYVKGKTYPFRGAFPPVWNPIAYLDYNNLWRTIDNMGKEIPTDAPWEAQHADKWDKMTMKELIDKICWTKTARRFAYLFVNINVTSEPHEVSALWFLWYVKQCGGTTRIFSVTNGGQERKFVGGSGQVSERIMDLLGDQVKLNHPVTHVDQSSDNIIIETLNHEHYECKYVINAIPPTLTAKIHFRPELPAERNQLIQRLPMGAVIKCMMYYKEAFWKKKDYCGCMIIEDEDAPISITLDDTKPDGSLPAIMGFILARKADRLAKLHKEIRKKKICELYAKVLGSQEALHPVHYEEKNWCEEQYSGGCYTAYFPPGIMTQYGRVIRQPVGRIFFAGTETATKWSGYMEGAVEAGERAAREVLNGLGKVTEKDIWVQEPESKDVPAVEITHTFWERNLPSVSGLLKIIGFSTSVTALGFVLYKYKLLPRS

AVPR1A = AVPR1A (Homo sapiens, UniProt P37288); experiment: Safetyscan47 GPCR Calcium Flux, Antagonist; assay type: cell-based; details: for Emax: read-out: Max Response
GR = target: T2, GR (Homo sapiens, UniProt P04150); experiment: Safetyscan47 NHR Protein Interaction, Agonist; assay type: cell-based; details: for Emax: read-out: Max Response
T2 sequence (P04150 1-777): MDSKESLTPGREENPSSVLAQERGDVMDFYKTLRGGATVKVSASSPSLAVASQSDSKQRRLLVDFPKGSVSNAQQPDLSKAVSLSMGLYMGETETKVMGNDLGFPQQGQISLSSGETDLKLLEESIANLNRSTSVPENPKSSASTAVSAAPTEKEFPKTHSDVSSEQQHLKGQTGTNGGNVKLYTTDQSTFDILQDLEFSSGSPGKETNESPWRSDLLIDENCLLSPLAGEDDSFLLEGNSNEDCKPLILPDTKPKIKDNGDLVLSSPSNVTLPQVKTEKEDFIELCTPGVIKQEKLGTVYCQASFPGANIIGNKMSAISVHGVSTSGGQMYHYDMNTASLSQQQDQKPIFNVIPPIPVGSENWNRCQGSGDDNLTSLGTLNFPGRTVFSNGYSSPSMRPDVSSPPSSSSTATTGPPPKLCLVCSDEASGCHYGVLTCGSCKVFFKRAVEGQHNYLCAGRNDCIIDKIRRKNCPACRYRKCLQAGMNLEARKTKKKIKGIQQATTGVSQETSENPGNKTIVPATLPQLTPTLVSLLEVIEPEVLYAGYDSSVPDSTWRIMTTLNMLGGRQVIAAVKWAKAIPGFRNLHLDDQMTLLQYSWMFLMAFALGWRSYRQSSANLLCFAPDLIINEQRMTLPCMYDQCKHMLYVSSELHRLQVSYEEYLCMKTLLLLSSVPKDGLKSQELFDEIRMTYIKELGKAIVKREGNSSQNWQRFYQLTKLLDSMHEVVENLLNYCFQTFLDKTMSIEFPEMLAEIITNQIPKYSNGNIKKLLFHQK

ADRB1 = ADRB1 (Homo sapiens, UniProt P08588); experiment: Safetyscan47 GPCR cAMP, Agonist; assay type: cell-based; details: for Emax: read-out: Max Response
integrin αvβ8 = integrin αvβ8 (Homo sapiens, UniProt P06756+P26012); experiment: ELISA competition assay, integrin αvβ8 binding to LAP
OPRK1 = OPRK1 (Homo sapiens, UniProt P41145); experiment: Safetyscan47 GPCR cAMP, Agonist; assay type: cell-based; details: for Emax: read-out: Max Response
ROCK1 = ROCK1 (Homo sapiens, UniProt Q13464); experiment: Safetyscan47 Kinases Binding, Inhibitor; details: for Emax: read-out: Max Response
PDE4D2 = PDE4D2 (Homo sapiens, UniProt Q08499); experiment: Safetyscan47 Non-Kinase Enzymes Enzymatic, Inhibitor; assay type: biochemical; details: for Emax: read-out: Max Response
integrin αvβ1 = integrin αvβ1 (Homo sapiens, UniProt P05556+P06756); experiment: ELISA competition assay, integrin αvβ1; assay type: binding
NAV1.5 = NAV1.5 (Homo sapiens, UniProt Q14524); experiment: Safetyscan47 Ion Channel, Blocker; assay type: cell-based
ADORA2A = ADORA2A (Homo sapiens, UniProt P29274); experiment: Safetyscan47 GPCR Calcium Flux, Agonist; assay type: cell-based; details: for Emax: read-out: Max Response
GABAA = GABAA (Homo sapiens, UniProt P14867+P18507+P47870); experiment: Safetyscan47 Ion Channel, Blocker; assay type: cell-based; details: for Emax: read-out: Max Response
integrin αvβ6 = integrin αvβ6 (Homo sapiens, UniProt P06756+P18564); experiment: ELISA competition assay, integrin αvβ6 binding to LAP; details: αvβ6 IC50, ELISA competition vs LAP; mean, n ≥ 3

For CC[C@H](C)[C@H](NC(=O)[C@H](CC(C)C)NC(=O)[C@H](CC(=O)O)NC(=O)CNC(=O)[C@H](CCCNC(=N)N)NC(=O)[C@@H](NC(=O)[C@H](Cc1ccccc1)NC(=O)[C@H](Cc1ccc(O)cc1)NC(=O)[C@@H]1CCC(=O)NCC(=O)NCC(=O)N[C@@H](CCCNC(=N)N)C(=O)NCC(=O)N[C@@H](Cc2c[nH]cn2)C(=O)N[C@@H](C(C)C)C(=O)N2CCC[C@H]2C(=O)N1)C(C)C)C(=O)N[C@@H](CO)C(=O)N[C@@H](Cc1ccccc1)C(=O)N[C@@H](Cc1ccc(O)cc1)C(=O)N[C@@H](CCCCN)C(=O)O [lassotide 36] (GGRGHVPEYFVRGDLISFYK-OH; lactam N-8), the pEC50 (HTR2B) was less than 4.35, the Emax (HTR2B) was 0% and the pEC50 (CNR2) was less than 4.35. The Emax (CNR2) was 6.08%, the pIC50 (MAOA) was less than 4.35 and the Emax (MAOA) was 10.8%. It also gave a pIC50 (AVPR1A) of less than 4.35, an Emax (AVPR1A) of 13.3% and a pEC50 (GR) of less than 4.35. It also gave an Emax (GR) of 0%, a pEC50 (ADRB1) of less than 4.35 and an Emax (ADRB1) of 0%. It also gave a pIC50 (integrin αvβ8) of 7.82, a pEC50 (OPRK1) of less than 4.35 and an Emax (OPRK1) of 2.19%. For the same molecule, the pIC50 (ROCK1) was less than 4.35, the Emax (ROCK1) was 19% and the pIC50 (PDE4D2) was less than 4.35. For the same molecule, the Emax (PDE4D2) was 0%, the pIC50 (integrin αvβ1) was 7.08 and the Emax (NAV1.5) was 39.5%. For the same molecule, the pIC50 (NAV1.5) was less than 4.35, the pEC50 (ADORA2A) was less than 4.35 and the Emax (ADORA2A) was 38.9%. It also gave a pIC50 (GABAA) of less than 4.35, an Emax (GABAA) of 0% and a pIC50 (integrin αvβ6) of 7.92.
Molecule CC[C@H](C)[C@H](NC(=O)[C@H](CC(C)C)NC(=O)[C@H](CC(=O)O)NC(=O)CNC(=O)[C@H](CCCNC(=N)N)NC(=O)[C@@H](NC(=O)[C@H](Cc1ccccc1)NC(=O)[C@H](Cc1ccc(O)cc1)NC(=O)[C@@H]1CCC(=O)NCC(=O)NCC(=O)N[C@@H](CCCNC(=N)N)C(=O)NCC(=O)N[C@@H](Cc2c[nH]cn2)C(=O)N[C@@H](C(C)C)C(=O)N2CCC[C@H]2C(=O)N1)C(C)C)C(=O)N[C@@H](CO)C(=O)N[C@@H](Cc1ccccc1)C(=O)N[C@@H](Cc1ccc(O)cc1)C(=O)N[C@@H](CCCCNC(=O)CCOCCOCCNC(=O)CCCc1ccc(I)cc1)C(=O)O [lassotide 47] (GGRGHVPEYFVRGDLISFYK([PEG2-Butanoyl(4-(4-I-phenyl))])-OH; lactam N-8) has a pEC50 (HTR2B) of less than 4.35, an Emax (HTR2B) of 0% and a pEC50 (CNR2) of less than 4.35. The Emax (CNR2) was 1.85%, the pIC50 (MAOA) was less than 4.35 and the Emax (MAOA) was 0%. For the same molecule, the pIC50 (AVPR1A) was less than 4.35, the Emax (AVPR1A) was 25.8% and the pEC50 (GR) was less than 4.35. For the same molecule, the Emax (GR) was 0%, the pEC50 (ADRB1) was less than 4.35 and the Emax (ADRB1) was 0%. For the same molecule, the pIC50 (integrin αvβ8) was 8.10, the pEC50 (OPRK1) was less than 4.35 and the Emax (OPRK1) was 23.4%. The pIC50 (ROCK1) was less than 4.35, the Emax (ROCK1) was 2.56% and the pIC50 (PDE4D2) was less than 4.35. The Emax (PDE4D2) was 28.5%, the pIC50 (integrin αvβ1) was 5.91 and the Emax (NAV1.5) was 0%. It also gave a pIC50 (NAV1.5) of less than 4.35, a pEC50 (ADORA2A) of less than 4.35 and an Emax (ADORA2A) of 0%. The pIC50 (GABAA) was less than 4.35, the Emax (GABAA) was 0% and the pIC50 (integrin αvβ6) was 8.49.

From publication doi:10.1101/2025.01.28.635346v1 (bioRxiv, 2025)
